{"source": "patent US6159733A", "about": "“Method for photoinactivating malignant cells” (priority 1996, dated 2000)", "key": {"[1]": {"test_system": "cell lines (ABE-8.1/2, BC3A, L1210, P815, WEHI-3)", "experiment": "Survival of cell lines after incubation with Pc 4", "assay_type": "cell-based, murine", "conditions": "Mus musculus, light or radiation study, read-out: surviving fractions of the cell lines after incubation", "procedure": "(§1) Cell lines and culture conditions. WEHI-3 (murine myelocytic leukemia), L1210 (murine lymphocytic leukemia) and P815 (murine mastocytoma) cells were grown in RPMI 1640 (GibcoBRL, Grand Island, N.Y.) supplemented with 10% FBS. BC3A (murine leukemia) cells were grown in RPMI 1640 supplemented with 10 μM β-mercaptoethanol and 10% FBS; ABE-8.1/2 (murine pre-B lymphoma) cells were grown in DMEM (GibcoBRL)--10 μM β-mercaptoethanol--10% FBS. All cell lines were obtained from the American Type Culture Collection (Rockville, Md.) and were cultured at 37° C. in a humidified 5% CO2 -incubator. Prior to incubation with Pc 4, the cell lines were centrifuged and resuspended in phosphate buffered saline (PBS)--10% FBS, pH 7.4.\nPhotosensitization. […]\nCell line samples were plated (in triplicate) in a semi-solid medium which consisted of DMEM--20% vol/vol serum (2/3 horse serum, 1/3 FBS)--3 mM glutamine--60 μM β-mercaptoethanol--0.3% wt/vol agar. The samples were incubated at 37° C. in a humidified 5% CO2 -incubator, and colonies consisting of more than 50 cells were counted after nine days.\nStatistics. […] Data are expressed as mean values±standard error of the mean (SEM). […] The significance of the differences between experimental values was assessed by means of the Student's t-test."}, "[2]": {"test_system": "CFU-GM", "conditions": "15 nM Pc 4, 5×10^6 cells/mL, 8 J/cm^2; cited from earlier work"}, "[3]": {"test_system": "ABE-8.1/2 cells", "experiment": "Uptake of Pc 4 in mixtures of BM and cell lines", "assay_type": "cell-based, murine", "procedure": "(§2) In mixing experiments, aliquots of Ly-5.2 BM and cell lines samples were mixed at different ratios. The combined cell concentration of each sample was 1.5×10^7 cells/mL. […] The cell lines were stained with anti-Ly-5.1^FITC. This treatment allowed clear resolution of the relatively small ABE-8.1/2 and BC3A cells from the bone marrow granulocytes. Immediately prior to the analyses, propidium iodide (PI, 0.5 μg/mL) was added to the samples to allow exclusion of dead cells (PI^+) from the analyses. The samples were analyzed in a FACStar^PLUS (BD) that was equipped with an argon ion laser tuned to 488 nm (200 mW) and a dye laser tuned to 610 nm (300 mW). FITC, PE, PI and Pc 4 fluorescence emissions were collected through 530/30, 575/42, 660/10, 670/10 nm band pass filters, respectively."}, "[4]": {"test_system": "V79", "conditions": "cited from earlier work"}, "[5]": {"test_system": "cell lines and bone marrow samples", "experiment": "Uptake of Pc 4", "assay_type": "cell-based, murine", "procedure": "Photosensitization. Aliquots of a 1.87 mM Pc 4 (kindly provided by Dr. M. E. Kenney) stock solution in dimethyl sulfoxide were kept at -80° C. in autoclaved brown glass vials. Immediately prior to the photosensitization, Pc4 was thawed and diluted in dimethyl formamide to yield a 10 μM working solution. […] Pc 4 was used at 15 nM throughout the experiments."}, "[6]": {"test_system": "viruses", "conditions": "blood products; cited from earlier work"}, "[7]": {"test_system": "WEHI-3 cells", "experiment": "Uptake of Pc 4, flow cytometry", "assay_type": "cell-based, murine", "conditions": "for Pc 4 content / Pc 4 content per cell volume: 15 nM", "procedure": "as §1, §2\n(§3) Cell size. Microscopic measurements of at least 20 cells were performed using a calibrated micrometer. To determine the cell size of the BM progenitor subsets, the c-kit^+,Sca-1^- and c-kit^+,Sca-1^+ fractions were sorted. The sorted cells were centrifuged and the pellets were resuspended in a 20 μl of HBBS. Samples were deposited onto microscope slides and covered with a cover slip. Cell diameters of 7.7±0.2 (c-kit^+,Sca-1^+), 8.4±0.3 (c-kit^+,Sca-1^-), 10.9±0.2 (BC3A), 11.1±0.2 (ABE-8.1/2), 13.0±0.3 (L1210), 14.2±0.3 (P815), 15.0±0.4 μm (WEHI-3) were obtained."}, "[8]": {"test_system": "P815 cells", "experiment": "Uptake of Pc 4, flow cytometry", "assay_type": "cell-based, murine", "conditions": "for Pc 4 content / Pc 4 content per cell volume: 15 nM", "procedure": "as §1, §2, §3"}, "[9]": {"test_system": "BC3A cells", "experiment": "Uptake of Pc 4, flow cytometry", "assay_type": "cell-based, murine", "procedure": "as §1, §2, §3"}, "[10]": {"test_system": "ABE-8.1/2 cells", "experiment": "Uptake of Pc 4, flow cytometry", "assay_type": "cell-based, murine", "conditions": "for Pc 4 content / Pc 4 content per cell volume: 15 nM", "procedure": "as §1, §2, §3"}, "[11]": {"test_system": "L1210 cells", "experiment": "Uptake of Pc 4, flow cytometry", "assay_type": "cell-based, murine", "conditions": "for Pc 4 content / Pc 4 content per cell volume: 15 nM", "procedure": "as §1, §2, §3"}, "[12]": {"conditions": "1.5×10^6 cells/ml during incubation"}, "[13]": {"conditions": "1.5×10^7 cells/ml during incubation"}, "[14]": {"conditions": "from 8.0×10^5 to 1.5×10^7 cells/mL"}, "[15]": {"conditions": "15 nM, 1.5×10^6 cells/ml during incubation"}, "[16]": {"conditions": "15 nM, 1.5×10^7 cells/ml during incubation"}}}
{"compound": "CN(C)CCC[Si](C)(C)O[Si]1(O)n2c3c4ccccc4c2N=C2N=C(N=c4c5ccccc5c(n41)=NC1=NC(=N3)c3ccccc31)c1ccccc12", "note": "(stereo not drawn) [Pc 4, hydroxysiloxy-dimethylpropyl-N-dimethyl silicon phthalocyanine]", "values": [{"measurement": "viability at 0.015 µM", "setting": "[1]", "value": "73 to 100", "unit": "%"}, {"measurement": "surviving fraction of human cells", "setting": "[2]", "value": 1.0}, {"measurement": "Pc 4 uptake in mixtures versus cell line alone", "setting": "[3]; BM fraction<0.9, versus without BM", "value": "lower"}, {"measurement": "Pc 4 content in cell line", "setting": "[3]; BM/ABE-8.1/2, BM fraction 0.50", "value": 74, "unit": "Mean fluorescence/cell"}, {"measurement": "Pc 4 content in cell line", "setting": "[3]; BM/ABE-8.1/2, BM fraction 0.70", "value": 86, "unit": "Mean fluorescence/cell"}, {"measurement": "Pc 4 content in cell line", "setting": "[3]; BM/ABE-8.1/2, BM fraction 0.80", "value": 91, "unit": "Mean fluorescence/cell"}, {"measurement": "Pc 4 content in cell line", "setting": "[3]; BM/ABE-8.1/2, BM fraction 0.90", "value": 95, "unit": "Mean fluorescence/cell"}, {"measurement": "Pc 4 content in cell line", "setting": "[3]; BM/ABE-8.1/2, BM fraction 0.95", "value": 100, "unit": "Mean fluorescence/cell"}, {"measurement": "photoinactivation of V79 cells", "setting": "[4]", "value": "effectively photoinactivate"}, {"measurement": "dependence of Pc 4 uptake on cell concentration", "setting": "[5]; all cell types, 15 nM", "value": "inversely correlated with the cell concentration"}, {"measurement": "cellular Pc 4 concentration in BM fractions relative to cell lines", "setting": "[5]; committed progenitors and pluripotent stem cells, corrected for cell volume", "value": "almost twice"}, {"measurement": "time to complete uptake", "setting": "[5]; murine BM samples", "value": "complete after two hours"}, {"measurement": "photoinactivation of viruses", "setting": "[6]", "value": "effectively photoinactivate"}, {"measurement": "Pc 4 content", "setting": "[7]; [12]", "value": "296 ± 8.5", "unit": "Mean fluorescence/cell"}, {"measurement": "Pc 4 content per cell volume", "setting": "[7]; [12]", "value": 0.17, "unit": "Mean fluorescence/μm^3"}, {"measurement": "Pc 4 content", "setting": "[7]; [13]", "value": "57 ± 4.7", "unit": "Mean fluorescence/cell"}, {"measurement": "Pc 4 content per cell volume", "setting": "[7]; [13]", "value": 0.03, "unit": "Mean fluorescence/μm^3"}, {"measurement": "reduction of Pc 4 uptake", "setting": "[7]; [14]", "value": 5.1, "unit": "fold"}, {"measurement": "Pc 4 content", "setting": "[8]; [12]", "value": "414 ± 21.5", "unit": "Mean fluorescence/cell"}, {"measurement": "Pc 4 content per cell volume", "setting": "[8]; [12]", "value": 0.28, "unit": "Mean fluorescence/μm^3"}, {"measurement": "Pc 4 content", "setting": "[8]; [13]", "value": "152 ± 17.2", "unit": "Mean fluorescence/cell"}, {"measurement": "Pc 4 content per cell volume", "setting": "[8]; [13]", "value": 0.10, "unit": "Mean fluorescence/μm^3"}, {"measurement": "reduction of Pc 4 uptake", "setting": "[8]; [14]", "value": 2.8, "unit": "fold"}, {"measurement": "cell concentration at which uptake reached a plateau", "setting": "[9]; 15 nM", "value": "8.0×10^5 cells/mL"}, {"measurement": "Pc 4 content", "setting": "[9]; [15]", "value": "137 ± 11.3", "unit": "Mean fluorescence/cell"}, {"measurement": "Pc 4 content per cell volume", "setting": "[9]; [15]", "value": 0.20, "unit": "Mean fluorescence/μm^3"}, {"measurement": "Pc 4 content", "setting": "[9]; [16]", "value": "80 ± 5.5", "unit": "Mean fluorescence/cell"}, {"measurement": "Pc 4 content per cell volume", "setting": "[9]; [16]", "value": 0.12, "unit": "Mean fluorescence/μm^3"}, {"measurement": "reduction of Pc 4 uptake", "setting": "[9]; [14]", "value": 1.6, "unit": "fold"}, {"measurement": "Pc 4 content", "setting": "[10]; [12]", "value": "218 ± 29.0", "unit": "Mean fluorescence/cell"}, {"measurement": "Pc 4 content per cell volume", "setting": "[10]; [12]", "value": 0.30, "unit": "Mean fluorescence/μm^3"}, {"measurement": "Pc 4 content", "setting": "[10]; [13]", "value": "95 ± 7.6", "unit": "Mean fluorescence/cell"}, {"measurement": "Pc 4 content per cell volume", "setting": "[10]; [13]", "value": 0.13, "unit": "Mean fluorescence/μm^3"}, {"measurement": "reduction of Pc 4 uptake", "setting": "[10]; [14]", "value": 2.5, "unit": "fold"}, {"measurement": "Pc 4 content", "setting": "[11]; [12]", "value": "291 ± 14.0", "unit": "Mean fluorescence/cell"}, {"measurement": "Pc 4 content per cell volume", "setting": "[11]; [12]", "value": 0.25, "unit": "Mean fluorescence/μm^3"}, {"measurement": "Pc 4 content", "setting": "[11]; [13]", "value": "124 ± 4.2", "unit": "Mean fluorescence/cell"}, {"measurement": "Pc 4 content per cell volume", "setting": "[11]; [13]", "value": 0.11, "unit": "Mean fluorescence/μm^3"}, {"measurement": "reduction of Pc 4 uptake", "setting": "[11]; [14]", "value": 2.5, "unit": "fold"}]}
